# Several values for one entry are separate records, joined by “and”; a condition that tells them apart may be missing. Identical values can stand only once.
# Test system: C57BL/6J-Apc^Min mice
# Assay: Chemopreventive activity in Apc^Min mouse model (intestinal tumor number)
# Details: for Tumor # ±S.D.: avg. age 118 days
# Experimental: In both studies,—Carbendazim was administered orally at 1000 mg/kg, 1500 mg/kg, and 2000 mg/kg on a twice weekly to end schedule. In order to provide a positive control for the Apc^Min mouse study, Sulindac was administered ad libitum in the drinking water at 85 mg/l. Gemcitabine at 80 mg/kg, i.p., served as the positive control in the MiaPaCa study.
# Female C57BL/6J-Apc^Min mice were obtained from The Jackson Laboratory at 4-5 weeks of age. The following day (Day 1), drug treatment begins. The Min (Multiple intestinal neoplasia) mouse is a strain with a mutated murine Apc (adenomatous polyposis coli) gene, which leads to the development of multiple intestinal polyps. This development is time and diet dependent, with 100% of the mice which ingest a high fat diet forming adenomas beginning around 45 days of age. These mice develop in excess of 30 adenomas throughout the intestinal tract during their 120 day life span and are therefore an ideal model for the evaluation of potential chemopreventive agents.
# The mean survival times of all groups were calculated, and results are expressed as mean survival of treated mice/mean survival of control mice (T/C)×100%. A T/C value of 150 means that the mice in the treated group lived 50% longer than those of the control group; this is sometimes referred to as the increase in life span, or ILS value.
# Statistics were performned on the data using primarily the log rank p-value test.
smiles,measurement,setting,value
"CC1=C(CC(=O)O)c2cc(F)ccc2/C1=C\c1ccc([S+](C)[O-])cc1 (stereo not drawn) [Sulindac, reference compound]",# of non-specific Death,"0.85 mg/kg p.o. ad libitum/H20, n 9",0
"COC(=O)Nc1nc2ccccc2[nH]1 [Carbendazim, 2-methoxycarbonylamino-benzimidazole]",Tumor # ±S.D.,"1000 mg/kg p.o. 2× weekly to end, control 31.70 ± 18.49, 1000 mg/kg",24.7 and 24.71 ± 7.8
same,# of non-specific Death,"1000 mg/kg p.o. 2× weekly to end, n 10",3
same,# of non-specific Death,"1500 mg/kg p.o. 2× weekly to end, n 10",2
same,Tumor # ±S.D.,"2000 mg/kg p.o. 2× weekly to end, control 31.70 ± 18.49, 2000 mg/kg",19.1 and 19.17 ± 7.36
same,# of non-specific Death,"2000 mg/kg p.o. 2× weekly to end, n 9",3

# Reference: patent US6423734B1, “Method of preventing cancer” (The Procter & Gamble Company, priority 1999, dated 2002)
